Test system: 598228-144-R-J1-PDC complex spheroid viability
Assay: Anticancer human tumor 598228-144-R-J1-PDC patient-derived serous endometrial adenocarcinoma cell line growth inhibition [GQUAD]
Conditions: for IC50: curve of first compound; for viability, T/C: stronger effect = lower value; active = viability on the fitted dose curve at most 10% of control; inactive = the rest
In short: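 Multi-cell-type spheroids of tumor cells with HUVEC and mesenchymal stem cells, treated with drug combinations. Concentrations descend in half-log steps from near clinical Cmax, or from 10 microM where Cmax is unknown; viability read-out.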

[1] = second compound 0.0316 µM, first compound 0.0316 µM
[2] = second compound 0.0316 µM, first compound 0.1 µM
[3] = second compound 0.0316 µM, first compound 0.316 µM
[4] = second compound 0.0316 µM, first compound 1 µM
[5] = second compound 0.0316 µM, first compound 3.16 µM
[6] = second compound 0.0316 µM, first compound 10 µM
[7] = second compound 0.1 µM, first compound 0.0316 µM
[8] = second compound 0.1 µM, first compound 0.1 µM
[9] = second compound 0.1 µM, first compound 0.316 µM
[10] = second compound 0.1 µM, first compound 1 µM
[11] = second compound 0.1 µM, first compound 3.16 µM
[12] = second compound 0.1 µM, first compound 10 µM
[13] = second compound 0.316 µM, first compound 0.0316 µM
[14] = second compound 0.316 µM, first compound 0.1 µM
[15] = second compound 0.316 µM, first compound 0.316 µM
[16] = second compound 0.316 µM, first compound 1 µM
[17] = second compound 0.316 µM, first compound 3.16 µM
[18] = second compound 0.316 µM, first compound 10 µM
[19] = second compound 1 µM, first compound 0.0316 µM
[20] = second compound 1 µM, first compound 0.1 µM
[21] = second compound 1 µM, first compound 0.316 µM
[22] = second compound 1 µM, first compound 1 µM
[23] = second compound 1 µM, first compound 3.16 µM
[24] = second compound 1 µM, first compound 10 µM
[25] = second compound 3.16 µM, first compound 0.0316 µM
[26] = second compound 3.16 µM, first compound 0.1 µM
[27] = second compound 3.16 µM, first compound 0.316 µM
[28] = second compound 3.16 µM, first compound 1 µM
[29] = second compound 3.16 µM, first compound 3.16 µM
[30] = second compound 3.16 µM, first compound 10 µM
[31] = second compound 10 µM, first compound 0.0316 µM
[32] = second compound 10 µM, first compound 0.1 µM
[33] = second compound 10 µM, first compound 0.316 µM
[34] = second compound 10 µM, first compound 1 µM
[35] = second compound 10 µM, first compound 3.16 µM
[36] = second compound 10 µM, first compound 10 µM
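Also: spheroids exposed to the agents for one week before reading.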
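For viability, T/C in this document: percent of vehicle DMSO control viability so 100% = untreated growth.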

Nc1ccn(C2OC(CO)C(O)C2(F)F)c(=O)n1 (centres undefined) + Cc1cnc(CNC(=O)c2c(=O)c3ccc(N4CCCN(C)CC4)nc3n3c2sc2ccccc23)cn1
71.2 nM: IC50 (second compound 0.0316 µM)
52.6 nM: IC50 (second compound 0.1 µM)
68.4 nM: IC50 (second compound 0.316 µM)
inactive: viability, T/C [1] 65.9% | viability, T/C [2] 42.8% | viability, T/C [3] 41.7% | viability, T/C [4] 42.5% | viability, T/C [5] 43.6% | viability, T/C [6] 44.6% | viability, T/C [7] 58.7% | viability, T/C [8] 38.4% | viability, T/C [9] 45.7% | viability, T/C [10] 46.6% | viability, T/C [11] 40% | viability, T/C [12] 39% | viability, T/C [13] 63.5% | viability, T/C [14] 43.8% | viability, T/C [15] 38.2% | viability, T/C [16] 44.9% | viability, T/C [17] 44.8% | viability, T/C [18] 39.1% | viability, T/C [19] 58.3% | viability, T/C [20] 41.6% | viability, T/C [21] 47.5% | viability, T/C [22] 39.7% | viability, T/C [23] 54.7% | viability, T/C [24] 46.8% | viability, T/C [25] 60.2% | viability, T/C [26] 43.2% | viability, T/C [27] 36.4% | viability, T/C [28] 26.4% | viability, T/C [29] 50.5% | viability, T/C [30] 37% | viability, T/C [31] 48.5% | viability, T/C [32] 27.7% | viability, T/C [33] 23.3% | viability, T/C [34] 30.2% | viability, T/C [35] 38.8% | viability, T/C [36] 18.6%
< 31.6 nM: IC50 (second compound 1 µM) | IC50 (second compound 3.16 µM) | IC50 (second compound 10 µM)

O=c1[nH]cc(F)c(=O)[nH]1 + Cc1cnc(CNC(=O)c2c(=O)c3ccc(N4CCCN(C)CC4)nc3n3c2sc2ccccc23)cn1
< 31.6 nM: IC50 (second compound 10 µM)
> 10000 nM: IC50 (second compound 0.0316 µM) | IC50 (second compound 0.1 µM) | IC50 (second compound 0.316 µM) | IC50 (second compound 1 µM) | IC50 (second compound 3.16 µM)
inactive: viability, T/C [1] 101% | viability, T/C [2] 98.9% | viability, T/C [3] 85.3% | viability, T/C [4] 85.7% | viability, T/C [5] 89% | viability, T/C [6] 76% | viability, T/C [7] 69.2% | viability, T/C [8] 80.3% | viability, T/C [9] 69.9% | viability, T/C [10] 65.1% | viability, T/C [11] 97.9% | viability, T/C [12] 64.1% | viability, T/C [13] 69.7% | viability, T/C [14] 77.8% | viability, T/C [15] 72.4% | viability, T/C [16] 66.3% | viability, T/C [17] 65.1% | viability, T/C [18] 55.5% | viability, T/C [19] 61.2% | viability, T/C [20] 54.3% | viability, T/C [21] 63.5% | viability, T/C [22] 68.4% | viability, T/C [23] 73.8% | viability, T/C [24] 60.3% | viability, T/C [25] 56.1% | viability, T/C [26] 59.2% | viability, T/C [27] 56% | viability, T/C [28] 46.1% | viability, T/C [29] 67.9% | viability, T/C [30] 52.2% | viability, T/C [31] 44.5% | viability, T/C [32] 49.6% | viability, T/C [33] 48.3% | viability, T/C [34] 53.1% | viability, T/C [35] 59.8% | viability, T/C [36] 51.9%

Reference: PubChem BioAssay AID2060506 (Molecular Pharmacology Branch, DTP, NCI, 2025)
